From ChEMBL document CHEMBL1147020, “Low molecular weight indole fragments as IMPDH inhibitors” (Bioorg Med Chem Lett, 2006)
Calls of active or inactive are those of the source. The rule behind the calls is not given here.

Target: T1, Inosine-5'-monophosphate dehydrogenase 2 (Homo sapiens, UniProt P12268)
Experiment: Inhibition of IMPDH2

IC50 [µM]	SMILES
0.524	Nc1cccc2c(-c3ccncc3)c[nH]c12
0.419	Cc1[nH]c2cc(N)ccc2c1-c1ccncc1
6.21	Cn1cc(-c2ccoc2)c2ccccc21
2.32	Nc1ccc2c(-c3ccsc3)c[nH]c2c1
0.343	Cc1[nH]c2ccccc2c1-c1ccncc1
7.66	Cn1cc(C#N)c2ccccc21
0.637	Nc1ccc2c(-c3ccncc3)c[nH]c2c1
6.84	Cn1cc(C=O)c2ccccc21
8.2	COc1cc(N)ccc1-c1cnco1
5.84	c1ccc2c(-c3ccoc3)c[nH]c2c1
22.7	O=Cc1c[nH]c2ccccc12 [3-FORMYLINDOLE]
27.9	Nc1ccc2c(-c3cncs3)c[nH]c2c1
0.408	Brc1ccc2c(-c3ccncc3)c[nH]c2c1
1.15	c1ccc2c(-c3ccncc3)c[nH]c2c1

SMILES	IC50 [µM]
N#Cc1c[nH]c2ccccc12	20.9

Target: T1, Inosine-5'-monophosphate dehydrogenase 2
Experiment: Inhibition of IMPDH2 at 50 uM

inhibition	SMILES
50%	Cn1cc(C(N)=O)c2ccccc21
62%	Cn1cc(-c2ccncc2)c2ccc(Br)cc21
inactive	c1cncc(-c2c[nH]c3ccccc23)c1
inactive	Cc1cc(-c2c[nH]c3cc(N)ccc23)ccn1
inactive	NC(=O)c1c[nH]c2ccccc12
